Assay results reported in patent publication US20250367229A1, “Treatment of Immune-Related Disorders, Kidney Disorders, Liver Disorders, Hemolytic Disorders, and Oxidative Stress-Associated Disorders Using NRH, NARH and Reduced Derivatives Thereof” (MitoPower LLC, priority 2021, published 2025).

What was measured:
[1] = system: CD4^+ T cells; assay: Ex vivo polyclonal immune activation model: cytokine production in CD4+ T cells; assay type: cell-based, human; details: stimulated with anti-CD3 and anti-CD28 antibodies; data not shown
Procedure: (§1) Heparinized venous blood was collected from healthy human adult donors. Peripheral blood mononuclear cells (PBMCs) were isolated by Ficoll-Hypaque density-gradient centrifugation. PBMCs (1.0×10^6) were seeded in round-bottom, 96-well plates in 200 μL of medium, unstimulated or stimulated with an anti-CD3 antibody ([…], clone-HIT3a, Biolegend) plus an anti-CD28 antibody (1 μg/mL, clone-CD28.2, Biolegend) to induce T-cell activation, and incubated in cell-culture medium. The PBMCs were unstimulated or stimulated with anti-CD3 and anti-CD28 antibodies to induce T-cell activation, in the absence or presence of 250 μM NRH. After 18 hours of incubation, lymphocytes were analyzed for intracellular levels of IFN-γ, TNF-α and IL-2 by flow cytometry. Intracellular cytokine production was stopped by treating the cells with Golgi stop after 1 hr of treatment.

[2] = system: peripheral blood mononuclear cells (PBMCs); assay: Extracellular acidification rate (ECAR, a measure of glycolysis) in activated PBMCs, Seahorse XF; assay type: cell-based, human; details: 250 μM, 4 hr, PBMCs stimulated with anti-CD3 and anti-CD28 antibodies
Procedure: PBMCs (1.5×10^6) obtained from a healthy human adult donor were unstimulated or stimulated with anti-CD3 and anti-CD28 antibodies (1 μg/mL each) to induce T-cell activation, in the absence or presence of 250 μM NRH for 4 hr. The cells were then washed and plated on poly-D-lysine-coated Seahorse XF microplates at a density of 3×10^5 cells per well (5 replicates). The plates were centrifuged briefly and incubated at 37° C. in a non-CO2 incubator for 30 min to settle the cells in the bottom of the plate. Extracellular acidification rate (ECAR, a measure of glycolysis) and oxygen consumption rate (OCR, a measure of oxidative phosphorylation) were determined using a Seahorse XF cell mito stress test kit and a Seahorse Xfe96 analyzer (Agilent Technologies, Santa Clara, California) under basal condition or in response to 1.0 μM oligomycin (an inhibitor of ATP synthase), 1.5 μM carbonyl cyanide-p-trifluoromethoxyphenylhydrazone (FCCP, a mitochondrial uncoupler), 0.5 μM rotenone (an inhibitor of electron transport at complex I) and antimycin A (an inhibitor of electron transport at cytochrome c reductase). PBMCs include monocytes and lymphocytes including T cells, B cells and natural killer cells.

[3] = Stability in human serum in vitro (absorbance over time); assay type: in vitro ADME; details: 100 μM, 37° C.
Procedure: Three blood samples were collected from healthy human donors with the same blood group in serum separator vacutainer gel tubes. The samples were centrifuged at 1,800 g to separate serum. The serum samples obtained were pooled together into a separate tube.
NR, NRH and NRH-triacetate (NRHTA) were initially dissolved in DMSO and then diluted with normal saline to obtain a 1 mM stock solution of each compound. 100 μL of stock solution was added to 900 μL of pooled serum to assess the stability of the test compound in human serum. 200 μL of saline with 1,800 μL of pooled serum was used to prepare a solution for blanking and as a reference measurement. The stock solutions were diluted in the pooled serum and normal saline to prepare 100 μM solutions of the test compounds.
In previous experiments, spectral scans between 190 nm and 1100 nm were performed to determine absorbance maxima for NR, NRH and NRHTA, which have maximal absorbance at 265 nm, 340 nm and 331 nm, respectively, in solution.
The stability of a test compound in human serum was determined by a change in the concentration of the compound as measured by a change in absorbance at the maximal absorbance wavelength for the compound as a function of time. The test compounds at 100 μM were incubated in human serum at 37° C. Absorbance measurements were made at 0 min (T0), 5 min, 30 min, 120 min, 240 min, 360 min and 1440 min (24 hr). The relative change in absorbance compared to T0 was plotted and used for statistical analysis. The analysis was performed in triplicates.

[4] = system: CD8^+ T cells; assay: Ex vivo polyclonal immune activation model: intracellular cytokine production in CD8+ T cells (flow cytometry); assay type: cell-based, human; details: 250 μM, 18 hours, PBMCs stimulated with anti-CD3 and anti-CD28 antibodies; p<0.05 Mann-Whitney U test
Procedure: as §1

[5] = system: red blood cells (RBCs); assay: H2O2-induced hemolysis in vitro; assay type: cell-based; details: 2000, 200 and 20 μM, pre-incubation 1 hr at 37° C., then H2O2 4 hr
Procedure: Individual test compounds were dissolved in 0.9% normal saline to prepare 0.3 M stock solutions. A 0.3 M stock solution was added to a 20% suspension of washed red blood cells (RBCs) in saline to obtain final concentrations of 2000 μM, 200 μM and 20 μM of the compound. The RBC suspensions were incubated with the test compound at 37° C. for 1 hr prior to testing. A 2.5% H2O2 solution was prepared fresh by dilution with normal saline and chilled at 2-8° C. before use. Each RBC suspension containing the test compound was split into tubes A and B. 250 μL of the chilled H2O2 solution was added to 250 μL of RBC suspension in each tube while maintaining the tubes in an ice bath. The tubes were incubated at 37° C. for 4 hr, and then 4.5 mL of saline or de-ionized water was added to tube A or tube B, respectively. After the tubes were incubated for 10 min, the mixture in the tubes was centrifuged at 1800 g, and then absorbance was measured in the supernatant at 540 nm. The percentage of hemolysis was calculated as: […]

[6] = system: CD4^+ T cells; assay: Cell death including apoptosis (annexin V, flow cytometry) of CD4+ T cells with depolarized mitochondria; assay type: cell-based, human; details: 250 μM, 24 hr, unstimulated or stimulated with anti-CD3 and anti-CD28 antibodies
Procedure: PBMCs (10^6 cells per test group) obtained from healthy human adult donors were unstimulated or stimulated with anti-CD3 and anti-CD28 antibodies to induce T-cell activation, in the absence or presence of 250 μM of NRH or NRH-triacetate (NRHTA). Measurements were made at 5, 15 and 24 hr after treatment.
After the indicated time of incubation, the PBMCs were stained with anti-CD3, anti-CD4 and anti-CD8 antibodies (Biolegend), JC-1 (1 μM, Thermo Fisher) and annexin V (Thermo Fisher) prior to analysis by flow cytometry. Annexin V binds to cell-surface phosphatidylserine, which is a marker for different forms of cell death including apoptosis and necrosis. The stained cells were re-suspended in phosphate-buffered saline (PBS) and acquired in a Cytek Aurora flow cytometer using a FlowJo software (v10) for analysis. About 200,000-300,000 cells were acquired in the flow cytometer for analysis. Standard procedures for spectral compensation were performed to obtain cell populations. Lymphocytes identified by forward and side scatter were gated to obtain CD3^+/CD4^+ and CD3^+/CD8^+ T-cell populations. Those T-cell populations were gated to identify the red and green signals for JC-1 aggregate and monomer, respectively, and annexin V. The percentage of cells staining green by JC-1 monomer was used to determine the percentage of cells with depolarized mitochondria. […]

Compound: NC(=O)C1=CN([C@@H]2O[C@H](CO)[C@@H](O)[C@H]2O)C=CC1 [NRH, N-(β-D-ribofuranosyl)dihydronicotinamide]
- production of pro-inflammatory cytokines (e.g., TNF-α, IL-2, IFN-γ) by CD4+ T cells [1]: reduced production of pro-inflammatory cytokines
- extracellular acidification rate (ECAR, a measure of glycolysis) in activated PBMCs [2]: significantly reduced
- compound remaining intact in human serum after 6 hr ([3]; 6 hr): Most of both NRH and NRH-triacetate remained intact
- stability in human serum compared with NR ([3]; up to 24 hr, p<0.05): much more stable
- production of IFN-γ in activated CD8+ T cells [4]: significantly reduced
- production of IL-2 in activated CD8+ T cells [4]: significantly reduced
- production of TNF-α in activated CD8+ T cells [4]: significantly reduced
- H2O2-induced hemolysis [5]: reduced H2O2-induced hemolysis
- cell death including apoptosis of CD4+ T cells with depolarized mitochondria [6]: reduced cell death
